Data reported in US5750361A (priority 1995, dated 1998).
“Also recorded” adds a separate entry of the source. Where a name gives a salt, the structure may show the parent alone.

How the values were obtained:
[^35 S-]PrP^C = assay type: biochemical, Syrian hamster
proteinase K = assay type: biochemical
[^35 S-]SHaPrP^C = [^35 S-]SHaPrP^C (Mesocricetus auratus, UniProt P04273); assay type: biochemical
[^35 S-]SHaPrP^C, sequence (P04273 23-254 limits assumed): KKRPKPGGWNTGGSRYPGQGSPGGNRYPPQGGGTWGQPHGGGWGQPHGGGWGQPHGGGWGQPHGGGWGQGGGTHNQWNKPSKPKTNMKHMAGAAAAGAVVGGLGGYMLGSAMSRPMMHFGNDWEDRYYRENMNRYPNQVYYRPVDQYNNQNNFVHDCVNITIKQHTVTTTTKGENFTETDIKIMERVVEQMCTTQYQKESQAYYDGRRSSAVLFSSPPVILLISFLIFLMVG

SMILES: N=C(N)N [Gdn-HCl, guanidine hydrochloride]
- Requirement of Gdn-HCl for complex formation ([^35 S-]PrP^C): seemed to be essential
- Reduction of proteinase K activity (proteinase K): ~ 90%

SMILES: CCCCCCCCCCCC(=O)N(C)CC(=O)O [Sarkosyl]
- Effect of Sarkosyl on PrP^C /PrP peptide complexes ([^35 S-]SHaPrP^C): disrupted the prion protein complexes and rendered the PrP^C sensitive to protease activity; also recorded: disrupted the PrP^C /PrP peptide complexes and rendered the PrP^C sensitive to protease activity
